The numbers were not newly measured in US6583280B1, “Polyamine analogues having antiproliferative activity” (priority 2000, dated 2003), which cites them from elsewhere.

The conditions of series [1]: in vitro toxicity.
For series [2] the following is noted: animal study.
The conditions of series [3]: liver and kidney.
The target of series [4] is polyamine transport system.
For series [5], the system named is L1210 murine leukemia cells.
The next series has as its system recombinant NMDA. Particulars: recombinant NMDA receptors.
Series [6] concerns the target T1, SSAT (Homo sapiens, UniProt P21673). Particulars: due to lack of uptake.
The target in series [7] is T1, SSAT. Particulars: multisubstrate inhibitor of SSAT.
The next series has as its system NMDA receptor. The settings on record: for IC50: MK-801 binding.
The subject of series [8] is human large cell carcinoma (LCLC). Particulars: 10 μM.
For series [9], the system named is SSAT.
For series [10], the system named is human small cell lung carcinoma line (SCLC).
The target in the next series is T2, ODC (Homo sapiens, UniProt P11926).
T2 sequence (P11926 1-461): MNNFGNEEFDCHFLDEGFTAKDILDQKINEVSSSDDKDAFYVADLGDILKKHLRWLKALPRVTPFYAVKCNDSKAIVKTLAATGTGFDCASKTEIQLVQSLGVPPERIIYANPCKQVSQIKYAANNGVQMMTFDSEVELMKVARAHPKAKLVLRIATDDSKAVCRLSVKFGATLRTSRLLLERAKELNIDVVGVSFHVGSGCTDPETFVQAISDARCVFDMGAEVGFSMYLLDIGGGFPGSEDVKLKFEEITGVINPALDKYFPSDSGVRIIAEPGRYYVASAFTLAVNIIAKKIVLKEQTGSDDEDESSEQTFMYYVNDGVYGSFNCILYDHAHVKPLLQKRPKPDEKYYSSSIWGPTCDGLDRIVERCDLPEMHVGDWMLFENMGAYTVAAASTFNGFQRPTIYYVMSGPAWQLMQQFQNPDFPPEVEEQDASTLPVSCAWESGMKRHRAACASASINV

For series [11] the following is noted: physiological pH.
Another series addresses T3, spermine synthase (Homo sapiens, UniProt P52788).
T3 sequence (P52788 1-366): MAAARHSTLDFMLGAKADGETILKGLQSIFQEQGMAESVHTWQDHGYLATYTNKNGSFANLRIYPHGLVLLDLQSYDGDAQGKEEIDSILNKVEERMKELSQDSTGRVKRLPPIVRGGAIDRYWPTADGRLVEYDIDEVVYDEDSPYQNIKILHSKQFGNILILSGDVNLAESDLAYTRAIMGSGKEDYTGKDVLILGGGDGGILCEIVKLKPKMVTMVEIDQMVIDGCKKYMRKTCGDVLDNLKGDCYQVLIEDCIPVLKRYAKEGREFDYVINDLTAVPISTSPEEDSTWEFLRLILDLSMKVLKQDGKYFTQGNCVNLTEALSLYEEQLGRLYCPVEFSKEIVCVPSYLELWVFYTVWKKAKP
The settings on record: multisubstrate adduct inhibitor, in vitro.

The conditions of series [12]: human, in vivo.
In the next series the target is T4, AdoMetDC (Homo sapiens, UniProt P17707).
T4 sequence (P17707 68-334 limits assumed): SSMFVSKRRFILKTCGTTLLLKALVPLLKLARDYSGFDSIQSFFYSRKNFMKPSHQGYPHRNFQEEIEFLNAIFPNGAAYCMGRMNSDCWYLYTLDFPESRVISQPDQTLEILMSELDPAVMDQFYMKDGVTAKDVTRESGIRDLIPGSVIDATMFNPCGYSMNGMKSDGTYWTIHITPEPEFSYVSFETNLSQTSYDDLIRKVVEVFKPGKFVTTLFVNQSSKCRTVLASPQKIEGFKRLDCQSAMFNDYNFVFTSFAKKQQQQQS
T4 sequence (P17707 1-67 limits assumed): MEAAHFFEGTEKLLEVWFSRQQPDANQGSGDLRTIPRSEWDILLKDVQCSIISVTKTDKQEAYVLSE
Particulars: inhibitor of AdoMetDC.

The subject of series [13] is Trypanosoma brucei brucei.
Series [14] relates to two human pancreatic ductal adenocarcinoma cell lines.
[15] abbreviates: target not printed, read-out: Ki.
The mark [16] stands for this setting: 96th, read-out: 96th IC50 toward L1210 cell growth.
Where [17] appears, read: read-out: Ki value for the polyamine transport system.
Where [18] appears, read: L1210 murine leukemia cells, read-out: IC50.

Like-named read-outs stand apart in the source and are kept apart here. Bounds are passed on as bounds.

T1 sequence (P21673 whole entry, species assumed): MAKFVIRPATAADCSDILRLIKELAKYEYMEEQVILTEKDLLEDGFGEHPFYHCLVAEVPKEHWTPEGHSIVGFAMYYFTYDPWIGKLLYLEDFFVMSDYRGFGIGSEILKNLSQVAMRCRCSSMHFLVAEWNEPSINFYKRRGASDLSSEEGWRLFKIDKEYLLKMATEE

For the molecule `NCCCCN(CCCN)Cc1ccc(B(O)O)cc1` [BBSPD-5], the IC50 in series [1] was 5000 µM.

Take `NCCCCNCCCN` [spermidine]: the “nephrotoxicity relative to spermine” value in [2] is “approximately one-twentieth”.

`CCNCCCCNCCCCNCCCCNCC` [DEHSPM]: the “accumulation of drug and metabolites” value in [3] was “accumulate to toxic levels in the liver and kidney”. The Ki in series [4] (setting [15]) was 1.4 µM. The IC50 in series [5] (setting [16]) was 0.05 µM.

Regarding `c1ccc(CNCCCCN(CCCNCc2ccccc2)Cc2ccccc2)cc1` [TB-3-4], the IC50 in the series on recombinant NMDA was 0.2 µM.

For `CC(C)(COP(=O)(O)OP(=O)(O)OC[C@H]1O[C@@H](n2cnc3c(N)ncnc32)[C@H](O)[C@@H]1OP(=O)(O)O)[C@@H](O)C(=O)NCCC(=O)NCCSCC(=O)NCCCNCCCN` [CNSA, N-[1-(S-coenzyme A)acetyl]-syn-norspermidine amide], on SSAT [6], the “activity in intact cells” value was “devoid of activity in intact cells”. In addition, the IC50 on SSAT [7] is 0.3 µM.

With `NCCCCNCCCCNCCCCN` [homospermine], in the series on NMDA receptor, the “agonist concentration at NMDA receptor” value was not below 10 µM and the IC50 was 80 µM.

Take `CCNCCCNCCCCNCCCNCC` [DESpm, N′,N″-bis-ethylspermine]: the cytotoxicity result in series [8] is recorded as “cytotoxic”. For the same molecule, the “induction of SSAT” value in series [8] (time- and dose-dependent) was “above 1700 fold”. Also, the “SSAT up-regulation / stimulation” value in the series with SSAT [9] is recorded as 4.6 fold. Further, in series [4] (setting [17]), the Ki was 1.6 µM. The “effect on polyamine pools” value in the series with polyamine pools is recorded as “deplete all three polyamine pools”. Moreover, in series [5] (setting [18]), the IC50 was 0.18 µM. For the same molecule, in series [10], the “induction of SSAT or cytotoxic effect” value was “no significant induction of SSAT or cytotoxic effect”.

As for `NCCC[C@](N)(C(=O)O)C(F)F` [DFMO, α-difluoromethylornithine], the “effect on polyamine pools” value in the series on polyamine pools is “depletes putricine and spermidine pools, but has little effect on Spermine pools”. Moreover, at ODC (irreversible inhibitor of ODC), the Ki is 40 µM.

`CCNCC[C@@H](O)CNCCCCNC[C@H](O)CCNCC` [(HO)2DEHPM]: the “accumulation of drug and metabolites” value in [3] is on record as “not observed”. In series [4] (setting [15]), the Ki was 1.8 µM. Also, the IC50 in [5] (setting [16]) was 0.05 µM.

Consider `C(CNC1CCNCC1)CNC1CCNCC1` [PIP (3,3,3)], for which, in the series with NMDA receptor (agonist), the “increase of MK-801 level” value is listed as 100%. For the same molecule, the “fraction in the 3+ catonic state” value in series [11] was 63.2%.

“S-(-5′-deoxy-5′-adenosyl)-1,12-diamino-3-thio-9-azadodecane [AdoDATAD]”: the IC50 at spermine synthase is 20 µM.

Consider `C#C[C@H](N)CC[C@@H](C)N` [RR-MAP, (2R,5R)-6-heptyne-2,5-diamine], for which the Ki at ODC (putrescine analogue, target not given) was 3 µM. For the same molecule, the “toxicity in clinical trials” value in series [12] was “myclosuppression and renal toxicity”.

For the molecule `CN(CC=CCN)CC1OC(n2cnc3c(N)ncnc32)C(O)C1O` (stereo not drawn) [AbeAdo, 5′-{[(Z)-4-anino-2-butenyl]methylamino}-5′-deoxyadenosin], at AdoMetDC, the Ki is 0.3 µM. Further, in series [13] (Trypanosoma brucei brucei), the “potency relative to DFMO” value is reported as “at least 100 times”. Besides, the effect on infection entry in series [13] (Trypanosoma brucei brucei and multi-drug-resistant Trypanosoma brucei rhodesiense infections in mice) is “cures”.

Take `c1cc(NCCCCNc2ccncc2)ccn1` [PYR (3,4,3)]: the IC50 at NMDA receptor was 8 µM.

For `CCNCCCNCCCNCCCNCC` [DENSpm, N′,N″-bis ethylnorspermine], in series [14], the antiproliferative activity result is recorded as “great antiproliferative activity”. In addition, the “SSAT up-regulation / stimulation” value in the series on SSAT [9] is recorded as 15 fold. Further, in series [4] (setting [17]), the Ki is 17 µM. Also, in the series on polyamine pools, the “effect on polyamine pools” value is on record as “deplete all three polyamine pools”. For the same molecule, the IC50 in series [5] (setting [18]) is 1.3 µM.
